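In this assay, cells in 96-well plates receive the compound at five concentrations for 48 hours. Endpoints are linearly interpolated between the surrounding concentrations. TGI denotes the concentration required for complete inhibition of growth.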 *1 amine or outer side, *2 acyl side, *3 side chain or, on linkers, in order; H or OH if unused. Where a SMILES comes first, the peptide text is derived from it. Bridges are numbered along the chain shown (N, C = ends). [ ]: non-standard residue; d: D form. The star is where a group is joined. X38 = CC[C@H](C)[C@@H](N[*:1])[C@@H](O)CC(=O)[*:2]; NMeY = CN[C@@H](Cc1ccc(O)cc1)C(=O)O; dNMeL = CN[C@H](CC(C)C)C(=O)O; Hiv = CC(C)[C@H](O)C(=O)O; Pyruvoyl = CC(=O)C(=O)*
Tests used:
Test in all cases: NCI anticancer screen, dose series, 48 h
[1] = test system: SK-OV-3 ovarian
[2] = test system: LOX IMVI melanoma
[3] = test system: OVCAR-3 ovarian
[4] = test system: MCF7 breast
[5] = test system: A549 NSCLC
[6] = test system: UACC-62 melanoma
[7] = test system: RXF 393 renal
[8] = test system: NCI-H23 lung
[9] = test system: HCT-15 colon
[10] = test system: EKVX NSCLC

SMILES | TGI [1] | TGI [2] | TGI [3] | TGI [4] | TGI [5] | TGI [6] | TGI [7] | TGI [8] | TGI [9] | TGI [10]
C[C@@]12C=CC3C/C(=N\C(N)=S)C=C(CCCC4OCCO4)[C@]3(CC1)C2 (stereo not given in full) | > 100 µM | 31.1 µM | 39.3 µM | 26.4 µM | 59.7 µM | 30.4 µM | 31.7 µM | 58.5 µM | 53.6 µM | 40.6 µM
Clc1cccc(Cl)c1C=NC12CC3CC(CC(C3)C1)C2 | > 10 µM | > 10 µM | > 10 µM | > 10 µM | > 10 µM | > 10 µM | > 10 µM | > 10 µM | > 10 µM | > 10 µM
O=C1NC(N2CCOCC2)=N/C1=C\c1cccs1 | > 100 µM | > 100 µM | > 100 µM | > 100 µM | > 100 µM | > 100 µM | > 100 µM | > 100 µM | > 100 µM | > 100 µM
O=S1(=O)c2cnccc2NC(=NCc2cccc3ccccc23)N1c1ccccc1 | > 100 µM | > 100 µM | > 100 µM | > 100 µM | > 100 µM | > 100 µM | > 90.4 µM | > 100 µM | > 100 µM | > 100 µM
Fc1c(F)c(C(F)(F)F)c(F)c(F)c1N/N=C\c1c[nH]c2ccccc12 | 12.9 µM | 12.1 µM | 4.7 µM | 10.3 µM | 12 µM | 10.5 µM | 7.93 µM | 16.4 µM | 12.8 µM | 11.9 µM
CC(C)=CCOc1cc(NC(=S)c2ccoc2C)ccc1Cl | > 100 µM | > 100 µM | > 100 µM | > 100 µM | > 100 µM | > 100 µM | > 100 µM | > 100 µM | > 100 µM | > 100 µM
O=C1c2cc3c(cc2CC12Cc1cc4c(cc1C2=O)CCCC4)CCCC3 | > 100 µM | > 100 µM | 93.7 µM | > 100 µM | > 100 µM | > 100 µM | 51.6 µM | > 100 µM | > 100 µM | > 100 µM
CC1=C(C(=O)Nc2cccc3c2C(=O)NC3=O)CC(C(=O)Nc2cccc3c2C(=O)NC3=O)=C(C)N1 | > 100 µM | > 100 µM | > 100 µM | > 100 µM | > 100 µM | > 100 µM | > 100 µM | > 100 µM | > 100 µM | > 100 µM
CCOC(=O)NC(C(F)(F)F)(C(F)(F)F)P(=O)(OC(C)C)OC(C)C | > 100 µM | > 100 µM | > 100 µM | > 100 µM | > 100 µM | > 100 µM | > 100 µM | > 100 µM | > 100 µM | > 100 µM
c1csc(-c2cscc2-c2ccsc2)c1 | > 100 µM | > 100 µM | 56.1 µM | > 83.5 µM | > 100 µM | > 100 µM | 68.3 µM | > 100 µM | > 100 µM | > 100 µM
CCOC(=O)c1ccc(C(=O)OCC)n1-c1cc2cc(c1)CSCc1cc(cc(-n3c(C(=O)OCC)ccc3C(=O)OCC)c1)CSC2 | > 10 µM | > 10 µM | > 10 µM | > 10 µM | > 10 µM | > 10 µM | > 10 µM | > 10 µM | > 10 µM | > 10 µM
CC(C)c1ccccc1SC1CC(=O)CC(Sc2ccccc2C(C)C)C12O[C@H](c1ccccc1)[C@@H](c1ccccc1)O2 (stereo not given in full) | > 100 µM | 97.4 µM | > 100 µM | > 100 µM | > 100 µM | 96.4 µM | 42 µM | > 100 µM | > 100 µM | > 100 µM
CC[C@H](C)[C@H]1NC(=O)[C@@H](NC(=O)[C@@H](CC(C)C)N(C)C(=O)[C@@H]2CCCN2C(=O)C(C)=O)[C@@H](C)OC(=O)[C@H](Cc2ccc(OC)cc2)N(C)C(=O)[C@@H]2CCCN2C(=O)[C@H](CC(C)C)NC(=O)[C@H](C(C)C)OC(=O)C[C@@H]1O (Pyruvoyl-P[dNMeL]T[X38][Hiv]LP[NMeY](Me); ester 3-C) | 0.294 µM | 0.0481 µM | 0.0532 µM | 0.0599 µM | 0.0618 µM | 0.0299 µM | 0.0122 µM | 0.0421 µM | 3.29 µM | 0.0103 µM
Cc1nc2sc(CCl)nn2c(=O)c1Cl | 28.1 µM | 7.34 µM | 29.5 µM | 18.1 µM | 29.6 µM | 36.2 µM | 11 µM | 33.3 µM | 23.8 µM | 27.7 µM
NC(=O)C(Nc1c(Cl)cccc1Cl)c1cc2cc(Br)ccc2nc1Cl (stereo not given) | > 100 µM | > 100 µM | > 100 µM | > 100 µM | > 100 µM | > 100 µM | > 100 µM | > 100 µM | > 100 µM | > 100 µM
Fc1cc(C2=C[C@H](c3ccc(Cl)cc3)NC(=S)N2)c(Cl)cc1Cl | > 100 µM | > 100 µM | > 100 µM | > 100 µM | > 100 µM | > 100 µM | > 100 µM | > 100 µM | > 100 µM | > 100 µM

From PubChem BioAssay (NCI)
